# Reference: paper PMC5019375, “Characterization of Potent SMAC Mimetics that Sensitize Cancer Cells to TNF Family-Induced Apoptosis” (PLoS ONE, 2016)
# Values joined by “and” are separate entries in the source; they are usually repeats but may differ in a detail not shown here. Identical values can stand only once.
# Tests used:
# cIAP1-BIR2 = cIAP1-BIR2 (Homo sapiens, UniProt Q13490); assay: FP competition assay, displacement of SMAC-rhodamine
# Protocol: (§3) Solutions for assessing SMAC-rhodamine binding to various BIR domains were empirically optimized. […] For cIAP1-BIR3, the assay buffer was 25 mM Hepes [pH 7.5] containing 40 mM β-glycerol phosphate, 1 mM TCEP, and 0.005% Tween 20, typically with 20 nM SMAC-rhodamine. For cIAP1-BIR2, cIAP2-BIR2 and cIAP2-BIR3, assays were performed in 25 mM Hepes [pH 7.5] containing 1 mM TCEP and 0.005% Tween 20, typically with 20 nM SMAC-rhodamine.
# (§4) For cIAP1-BIR2, assays were conducted using 25 mM Hepes [pH 7.5] containing 1 mM TCEP, 0.005% Tween 20, ~1 μM cIAP1-BIR2, and 20 nM SMAC-rhodamine. For cIAP1-BIR3, assays were performed using the same buffered solution, except 40 mM β-glycerol phosphate was added and the cIAP1-BIR3 concentration was reduced to 50 nM. For cIAP2-BIR2, assays included a buffer containing 25 mM Hepes [pH 7.5] containing 1 mM TCEP, 0.005% Tween 20, 1 μM cIAP2-BIR2, and 20 nM SMAC-rhodamine. […] IC50 values were determined with a nonlinear fit using Prism software. Ki values were determined from the IC50 values using an online program developed by Nikolovska-Coleska et al. [26].
# [1] = system: PC-3 prostate cancer cells; assay: Cytotoxicity assay, sensitization to LT-α (CellTiter-Glo); type: cell-based, human; conditions: Homo sapiens; representative curves, 90 pM LT-α, 24 h, CellTiter-Glo; read-out: EC50, sensitization of PC-3 tumor cells to LT-α (Fig 5b)
# Protocol: (§1) Cellular cytotoxicity experiments were conducted in white 96-well flat bottom plates (Greiner Bio-One #655074). PC-3 prostate cancer cells were seeded into microtiter wells in 90 μL RPMI medium with 10% fetal calf serum and antibiotics at 5,000 cells per well, and then incubated overnight at 37°C with 5% CO2/95% air. The next day, compounds diluted into the same culture medium and added in 10 μL aliquots to achieve various final concentrations, maintaining a uniform total volume per well. Either TNF (at 10 nM final) or LT-α (at ~90 pM final) resuspended in 10 μL of RPMI with 10% fetal calf serum and antibiotics was added to wells or an equal volume of medium was applied for the control well. The plates were then further incubated for 24 h. Subsequently, cell viability was assessed by the addition of 25 μL per well of Cell-Titer-Glo reagent (Promega, Inc). Plates were read using a Luminoskan Ascent luminometer.
# (§2) The cellular activity of cIAP1 and cIAP2 inhibitors was evaluated through experiments where cytotoxicity of a human prostate tumor cell line (PC-3) was assessed in the presence or absence of cytokines TNF and LT-α. The experimental approach we used was to provide TNF or LT-α at a fixed concentration, which by itself was non-cytotoxic, then titrate SMAC mimetics into the cell cultures. […] The compound series described in this work has been tested against a broad range of cell lines (data not shown and [23]) and single agent toxicity was only observed for SKOV3 ovarian tumor cells. This agrees with the findings of Varfolomeev, Vince and Lalaoui, respectively.
# cIAP1-BIR3 = cIAP1-BIR3 (Homo sapiens, UniProt Q13490); assay: FP competition assay, displacement of SMAC-rhodamine; conditions: for binding affinity for cIAP1 and cIAP2 compared with XIAP: estimated by relative Ki values, cIAP1 and cIAP2 vs XIAP
# Protocol: as §3, §4
# cIAP2-BIR3 = cIAP2-BIR3 (Homo sapiens, UniProt Q13489); assay: as above
# Protocol: as §3, §4
# cIAP2-BIR2 = cIAP2-BIR2 (Homo sapiens, UniProt Q13489); assay: as above
# Protocol: as §3, §4
# [2] = system: PC-3 prostate cancer cells; assay: Cytotoxicity assay, sensitization to TNF (CellTiter-Glo); type: cell-based, human; conditions: representative curves, 10 nM TNF, 24 h, CellTiter-Glo; read-out: EC50, sensitization of PC-3 tumor cells to TNF (Fig 5a)
# Protocol: as §1, §2
# [3] = cIAP1 BIR3 Ki, 25 mM Hepes pH 7.5, 1 mM TCEP, 0.005% Tween 20, 20 nM SMAC-rhodamine, 40 mM β-glycerol phosphate, ~50 nM protein, Ki calculated from IC50
# cIAP1-BIR2, sequence (Q13490 144-260): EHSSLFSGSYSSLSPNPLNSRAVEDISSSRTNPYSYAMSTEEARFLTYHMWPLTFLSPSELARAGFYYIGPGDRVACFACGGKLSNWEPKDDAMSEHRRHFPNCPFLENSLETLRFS
# cIAP2-BIR2, sequence (Q13489 129-246): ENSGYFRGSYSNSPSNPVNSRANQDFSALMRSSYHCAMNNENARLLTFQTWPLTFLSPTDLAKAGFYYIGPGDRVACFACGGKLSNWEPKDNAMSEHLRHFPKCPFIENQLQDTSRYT
# cIAP2-BIR3, sequence (Q13489 243-333): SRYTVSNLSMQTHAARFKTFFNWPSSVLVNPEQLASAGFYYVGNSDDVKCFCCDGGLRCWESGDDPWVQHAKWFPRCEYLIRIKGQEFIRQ
# cIAP1-BIR3, sequence (Q13490 257-356): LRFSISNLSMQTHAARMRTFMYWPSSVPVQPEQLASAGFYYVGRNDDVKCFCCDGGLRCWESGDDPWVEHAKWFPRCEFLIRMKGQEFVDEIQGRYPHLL
SMILES,Ki (cIAP1-BIR2) [µM],EC50 [1] [µM],"Ki (cIAP1-BIR3; Ki against cIAP1-BIR3, FP assay) [µM]",Ki (cIAP1-BIR3; [3]),binding affinity for cIAP1 and cIAP2 compared with XIAP (cIAP1-BIR3),Ki (cIAP2-BIR3) [µM],Ki (cIAP2-BIR2) [µM],EC50 [2] [µM]
CN[C@@H](C)C(=O)N[C@H](C(=O)N1CCC[C@H]1C(=O)N[C@@H]1CCCc2ccccc21)C(C)C [compound 1],0.84,0.019,0.024 ± 0.001,0.02 µM,higher affinity binding to cIAP1 and cIAP2 than XIAP,0.04 ± 0.01,2.34,
CC[C@H](C)[C@H](NC(=O)[C@H](C)NC)C(=O)N1CCC[C@H]1C(=O)N[C@@H]1CCCc2ccccc21 [compound 2],1.11,,,0.04 µM,higher affinity binding to cIAP1 and cIAP2 than XIAP,0.09,2.08,
CC[C@H](NC(=O)[C@H](C)NC)C(=O)N1CCC[C@H]1C(=O)N[C@@H]1CCCc2ccccc21 [compound 3],2.34,,,0.06 µM,higher affinity binding to cIAP1 and cIAP2 than XIAP,0.06,5.27,
CN[C@@H](C)C(=O)N[C@@H](CC(C)C)C(=O)N1CCC[C@H]1C(=O)N[C@@H]1CCCc2ccccc21 [compound 5],1.33,,,0.06 µM,,0.12,4.35,
CN[C@@H](C)C(=O)N[C@@H](CC(=O)OC)C(=O)N1CCC[C@H]1C(=O)N[C@@H]1CCCc2ccccc21 [compound 6],2.16,,,0.08 µM,,0.19,6.38,
CN[C@@H](C)C(=O)N[C@@H](CC(=O)O)C(=O)N1CCC[C@H]1C(=O)N[C@@H]1CCCc2ccccc21 [compound 7],> 57.2,,,9.4 µM,,12.6,> 56.7,
CN[C@@H](C)C(=O)N[C@@H](CCC(N)=O)C(=O)N1CCC[C@H]1C(=O)N[C@@H]1CCCc2ccccc21 [compound 8],1.26,,,0.08 µM,,0.15,4.07,
CN[C@@H](C)C(=O)N[C@H](C(=O)N[C@@H](CCCNC(N)=N[N+](=O)[O-])C(=O)N[C@@H]1CCCc2ccccc21)C(C)C [compound 9],0.81,,,0.05 µM,,0.07,2.62,
CN[C@@H](C)C(=O)N[C@H](C(=O)N[C@@H](CCCNC(=O)OCc1ccccc1)C(=O)N[C@@H]1CCCc2ccccc21)C(C)C [compound 10],1.41,,,0.28 µM,,0.22,2.07,
CN[C@@H](C)C(=O)N[C@H](C(=O)N[C@@H](CCC(N)=O)C(=O)N[C@@H]1CCCc2ccccc21)C(C)C [compound 11],3.25,,,0.72 µM,,0.55,5.5,
CN[C@@H](C)C(=O)N[C@H](C(=O)N[C@@H](CCCCNC(=O)OCc1ccccc1)C(=O)N[C@@H]1CCCc2ccccc21)C(C)C [compound 12],3.31,,,0.2 µM,,0.5,5.46,
CN[C@@H](C)C(=O)N[C@H](C(=O)N[C@@H](CCCN)C(=O)N[C@@H]1CCCc2ccccc21)C(C)C [compound 13],1.47,,,0.09 µM,,0.07,3.75,
CN[C@@H](C)C(=O)N[C@H](C(=O)N[C@@H](CO)C(=O)N[C@@H]1CCCc2ccccc21)C(C)C [compound 14],3.09,,,0.23 µM,,0.3,6.81,
CN[C@@H](C)C(=O)N[C@H](C(=O)N[C@@H](C)C(=O)Nc1cccc2ccccc12)C(C)C [compound 15],8.96,,,3.23 µM and 3.2 µM,,5.1,17.5,5.3
